# According to US20090036540A1, “Guanylhydrazones in Methods of Treatment or Diagnosis as Modulators of Signal Transduction” (Cytokine PharmaSciences, Inc., priority 2003, published 2009):
# Assays:
# [1] = test system: Peripheral Blood Mononuclear Cells; test: PepChip kinome array: in vitro phosphorylation of peptide array by lysates of LPS-stimulated PBMCs; format: cell-based, human
# Protocol: (§1) Peripheral Blood Mononuclear Cells (PBMCs) were isolated from peripheral blood from healthy volunteers using standard density-gradient centrifugation over Ficoll-Paque Plus (Amersham Pharmacia Biotech AB, Uppsala, Sweden) after washing in resuspension in IMDM supplemented with 10% FBS, penicillin, streptomycin and amphotericin (hereafter referred to as complete IMDM).
# For kinome array samples, 10^7 PBMCs were suspended in 5 ml media (IMDM supplemented with 1.0% human serum). LPS stimulation consisted of a […] (37° C., 5% CO2) with 100 ng/ml LPS (E. coli, serotype 0111:B4). CNI treated PBMCs were maintained in media dosed with 1.0 μM CNI-1493 (Cytokine PharmaSciences, Inc.) 1 hour before and during incubation for LPS stimulation. Stimulations were terminated by an ice-cold PBS wash. PBMCs were lysed in 200 μl cell lysis buffer (20 mM Tris-HCl (pH 7.5), 150 mM NaCl, 1 mM Na2EDTA, 1 mM EGTA, 1% Triton, 2.5 mM sodium pyrophosphate, 1 mM MgCl2, 1 mM beta-glycerophosphate, 1 mM Na3VO4, 1 mM NaF, 1 μg/ml leupeptin, 1 μg/ml aprotinin, 1 mM PMSF) and the volume of the cell lysate were equalised with dH2O. The cell lysates were subsequently cleared on a 0.22 μm filter. PepChip incubation mix was produced by adding 10 μl of filter-cleared activation mix (50% glycerol, 50 μM ATP, 0.05% v/v Brij-35, 0.25 mg/ml BSA, ^33P-γ-ATP (1000 kBq)). Next, the PepChip mix is added onto the chip and the chip is kept at 37° C. in a humidified stove for 90 minutes. Subsequently, the PepChip was washed once with TBST, twice in 2M NaCl and twice in demineralised H2O and air-dry the PepChip slips. The experiments were performed three times in duplicate. The average inter-experimental variance in relative values was less than 5% for all spots.
# The chips were exposed to a phosphoimager plate for 72 hours and the spots were analysed on AIDA analysing software. For graphical visualisation of the spots in FIG. 2 the data of four arrays was averaged to eliminate false positives.
# PBMCs = test: Western blot of LPS-stimulated PBMCs for phosphorylated proteins; format: cell-based, human; settings: 1.0 μM CNI-1493 pre-incubation, LPS 15 minutes
# Protocol: as §1
# For western blot samples, […] PBMCs were suspended in 1 ml media and LPS stimulations were 15 minute incubations (37° C., 5% CO2) with 10 ng/ml LPS or pre-incubated with 1.0 μM CNI-1493 (Cytokine PharmaSciences, Inc.). Stimulations were terminated by an ice-cold PBS wash. Cells were subsequently pelleted, lysed, denatured (5 minutes at 95° C.) and stored at −20° C. 10^6 PBMCs lysed in 200 μl SDS Sample Buffer (62.5 mM Tris-HCl (pH 6.8 at 25° C.), 2% w/v SDS, 10% glycerol, 50 mM DTT, 0.01% w/v bromophenol blue), 25 μl of which was separated on 12% SDS-PAGE gels and transferred to nitrocellulose membranes. Antibodies for immunoblotting were from Cell Signaling and included Phospho-p38 MAP Kinase (cat #9211), Phospho-p44/42 MAP Kinase (cat #9101), Phospho-PKCzeta/lambda (cat #9378), Phospho-MEK1/2 (cat #9121), Phospho-Raf (cat #9424) and Phospho-SAPK/JNK (cat #9255).
# [2] = lysates of Semapimod-treated, lipopolysaccharide-stimulated PBMCs
smiles,measurement,setting,value
C/C(=N\NC(=N)N)c1cc(NC(=O)CCCCCCCCC(=O)Nc2cc(/C(C)=N/NC(=N)N)cc(/C(C)=N/NC(=N)N)c2)cc(/C(C)=N/NC(=N)N)c1 [Semapimod],"LPS + CNI: peptide phosphorylation, Kinase CaM-II, Substrate Vimentin","[1]; PBMC lysate, 1.0 μM CNI-1493, 100 ng/ml LPS, Control 6930, LPS 4147",248
same,"LPS + CNI: peptide phosphorylation, Kinase Lck/Fyn, Substrate MHC-I","[1]; PBMC lysate, 1.0 μM CNI-1493, 100 ng/ml LPS, Control 7040, LPS 1370",230
same,"LPS + CNI: peptide phosphorylation, Kinase not given, Substrate GS","[1]; PBMC lysate, 1.0 μM CNI-1493, 100 ng/ml LPS, Control 9758, LPS 17052",24415
same,"LPS + CNI: peptide phosphorylation, Kinase p38, Substrate MAPKAP2","[1]; PBMC lysate, 1.0 μM CNI-1493, 100 ng/ml LPS, Control 10168, LPS 21440",1150
same,"LPS + CNI: peptide phosphorylation, Kinase PKC, Substrate c-Src","[1]; PBMC lysate, 1.0 μM CNI-1493, 100 ng/ml LPS, Control 10728, LPS 10416",17000
same,"LPS + CNI: peptide phosphorylation, Kinase PKC, Substrate c-RAF","[1]; PBMC lysate, 1.0 μM CNI-1493, 100 ng/ml LPS, Control 10764, LPS 13640",9522
same,"LPS + CNI: peptide phosphorylation, Kinase not given, Substrate Tau","[1]; PBMC lysate, 1.0 μM CNI-1493, 100 ng/ml LPS, Control 15846, LPS 10500",27753
same,"LPS + CNI: peptide phosphorylation, Kinase v-Fps, Substrate Caldesmon","[1]; PBMC lysate, 1.0 μM CNI-1493, 100 ng/ml LPS, Control 16002, LPS 22800",31584
same,"LPS + CNI: peptide phosphorylation, Kinase and Substrate not given","[1]; PBMC lysate, 1.0 μM CNI-1493, 100 ng/ml LPS, Control 16320, LPS 822",300
same,"LPS + CNI: peptide phosphorylation, Kinase not given, Substrate GS","[1]; PBMC lysate, 1.0 μM CNI-1493, 100 ng/ml LPS, Control 16920, LPS 19500",23664
same,"LPS + CNI: peptide phosphorylation, Kinase CKII, Substrate GS","[1]; PBMC lysate, 1.0 μM CNI-1493, 100 ng/ml LPS, Control 17680, LPS 5350",13120
same,"LPS + CNI: peptide phosphorylation, Kinase Lck, Substrate Tec","[1]; PBMC lysate, 1.0 μM CNI-1493, 100 ng/ml LPS, Control 18096, LPS 13824",300
same,"LPS + CNI: peptide phosphorylation, Kinase PKC, Substrate Trop","[1]; PBMC lysate, 1.0 μM CNI-1493, 100 ng/ml LPS, Control 18786, LPS 23230",40000
same,"LPS + CNI: peptide phosphorylation, Kinase not given, Substrate GS","[1]; PBMC lysate, 1.0 μM CNI-1493, 100 ng/ml LPS, Control 20736, LPS 20592",26477
same,"LPS + CNI: peptide phosphorylation, Kinase p34cdc2, Substrate Lamin B1","[1]; PBMC lysate, 1.0 μM CNI-1493, 100 ng/ml LPS, Control 21000, LPS 11165",300
same,"LPS + CNI: peptide phosphorylation, Kinase not given, Substrate EIF4F","[1]; PBMC lysate, 1.0 μM CNI-1493, 100 ng/ml LPS, Control 21000, LPS 25200",24624
same,"LPS + CNI: peptide phosphorylation, Kinase PKC, Substrate BICKS","[1]; PBMC lysate, 1.0 μM CNI-1493, 100 ng/ml LPS, Control 23400, LPS 38086",15980
same,"LPS + CNI: peptide phosphorylation, Kinase PKC, Substrate MARCKS","[1]; PBMC lysate, 1.0 μM CNI-1493, 100 ng/ml LPS, Control 23714, LPS 16401",13426
same,"LPS + CNI: peptide phosphorylation, Kinase not given, Substrate MBP","[1]; PBMC lysate, 1.0 μM CNI-1493, 100 ng/ml LPS, Control 26208, LPS 36442",51888
same,"LPS + CNI: peptide phosphorylation, Kinase not given, Substrate Vimentin","[1]; PBMC lysate, 1.0 μM CNI-1493, 100 ng/ml LPS, Control 26240, LPS 30889",59840
same,"LPS + CNI: peptide phosphorylation, Kinase not given, Substrate MBP","[1]; PBMC lysate, 1.0 μM CNI-1493, 100 ng/ml LPS, Control 26481, LPS 23852",51414
same,"LPS + CNI: peptide phosphorylation, Kinase p42/44, Substrate MBP","[1]; PBMC lysate, 1.0 μM CNI-1493, 100 ng/ml LPS, Control 28710, LPS 536",23296
same,"LPS + CNI: peptide phosphorylation, Kinase not given, Substrate GS","[1]; PBMC lysate, 1.0 μM CNI-1493, 100 ng/ml LPS, Control 31500, LPS 31050",51102
same,"LPS + CNI: peptide phosphorylation, Kinase p42/44, Substrate MBP","[1]; PBMC lysate, 1.0 μM CNI-1493, 100 ng/ml LPS, Control 33814, LPS 14514",26352
same,"LPS + CNI: peptide phosphorylation, Kinase PKA, Substrate MARCKS","[1]; PBMC lysate, 1.0 μM CNI-1493, 100 ng/ml LPS, Control 34295, LPS 31647",62514
same,"LPS + CNI: peptide phosphorylation, Kinase not given, Substrate c-Src","[1]; PBMC lysate, 1.0 μM CNI-1493, 100 ng/ml LPS, Control 34410, LPS 2470",319
same,"LPS + CNI: peptide phosphorylation, Kinase not given, Substrate Vimentin","[1]; PBMC lysate, 1.0 μM CNI-1493, 100 ng/ml LPS, Control 37760, LPS 18020",44200
same,"LPS + CNI: peptide phosphorylation, Kinase not given, Substrate MBP","[1]; PBMC lysate, 1.0 μM CNI-1493, 100 ng/ml LPS, Control 38634, LPS 36464",38354
same,"LPS + CNI: peptide phosphorylation, Kinase not given, Substrate MBP","[1]; PBMC lysate, 1.0 μM CNI-1493, 100 ng/ml LPS, Control 40793, LPS 36600",55572
same,"LPS + CNI: peptide phosphorylation, Kinase PKC, Substrate MBP","[1]; PBMC lysate, 1.0 μM CNI-1493, 100 ng/ml LPS, Control 47940, LPS 18624",15680
same,"LPS + CNI: peptide phosphorylation, Kinase not given, Substrate MLC-2","[1]; PBMC lysate, 1.0 μM CNI-1493, 100 ng/ml LPS, Control 48400, LPS 53482",33674
same,"LPS + CNI: peptide phosphorylation, Kinase not given, Substrate MBP","[1]; PBMC lysate, 1.0 μM CNI-1493, 100 ng/ml LPS, Control 60630, LPS 62900",65076
same,"LPS + CNI: peptide phosphorylation, Kinase PKA, p42/44, Substrate CgA","[1]; PBMC lysate, 1.0 μM CNI-1493, 100 ng/ml LPS, Control 62088, LPS 548",6700
same,capacity to phosphorylate peptides representing consensus sequences for MAP kinase family members,[1]; [2],strongly impaired
same,phosphorylation of a peptide representing a consensus phosphorylation site for MEK kinase,[1]; [2],inhibited
same,phosphorylation of a peptide representing the PKC consensus phosphorylation site in c-Raf,[1]; [2],not impaired
same,MEK phosphorylation,PBMCs,abolishes MEK phosphorylation
same,lipopolysaccharide-dependent phosphorylation of the PKC site in c-Raf,PBMCs,does not interfere
